Results as given in US20140243411A1 (priority 2011, published 2014).

Tests used:
[1] = Physical-chemical characterization: viscosity and density; assay type: physicochemical
Description: More than a dozen esters and amide derivatives of DTPA were synthesized. […] C2E5 is an oil with a viscosity of 163 cps at 25° C. […] The density of C2E5 was determined to be 1.119 g/mL. […] The intrinsic partition coefficient (log P) of C2E5 is difficult to measure due to its instability at high pH. Thus, the log D6.0 was determined by measuring the partitioning of C2E5 into octanol and water phases.
The solvent evaporation method was subsequently used to prepare the C2E5 non-aqueous gel formulations.

[2] = In vitro percutaneous permeation of C2E5 nonaqueous gel spiked with [14C]-C2E5; assay type: in vitro ADME, Sprague-Dawley (SD) rat
Description: An in vitro permeation study was carried out using a vertical diffusion cell system equipped with an autosampler (Hanson Microette Autosampling System, Hanson Research Co., USA). The area for permeation was 1.767 cm^2, and the receiver compartment volume was 7 mL. The experiments were run at 32° C. and stirred magnetically at 400 rpm. The receiver medium was 0.1M phosphate buffer (pH 7.4). SD rat skin samples were prepared by harvesting dorsal skin samples from freshly euthanized (<1 h) SD rats (n=9, 200-300 g). The skin was shaved and the subcutaneous fat tissue was carefully peeled from the dermis layer to remove potential interference due to high levels of esterase activity in subcutaneous tissue. The processed skin samples were inspected visually for membrane integrity. The qualified skin samples were stored at −20° C. until use. The SD rat skin samples were first allowed to thaw for at least 1 h in the receiver medium, and then mounted and clamped between the receiver and donor compartments of the diffusion cells. […] ([^14C]-C2E5; 50 mCi/mmol) labeled at carbon-1 (carbonyl carbon) was purchased from American Radiolabeled Chemicals, Inc., St. Louis, Mo.).
Collected samples were dispensed into Ultima Gold™ scintillation cocktail at a ratio of 100 μL:10 mL and assayed directly for radioactivity by liquid scintillation counting (LSC) using a Packard TriCarb 3100TR (PerkinElmer Life and Analytical Sciences) with automatic quench correction. Samples were counted for 10 min or until a 5% confidence level was achieved. The samples were subsequently assayed for intact C2E5 and its metabolites using HPLC-FSA. The cumulative releases of C2E5 and its metabolites were plotted as a function of time.
Fick's law (Equation 4) has been used as a simple model to describe the steady-state diffusion of drug through the skin:
where Jss=steady-state flux (mol/hr); D=drug diffusivity (cm^2/hr); h=membrane thickness (cm); Ksc/veh=drug's stratum corneum-vehicle partition coefficient; Cveh=drug concentration (mg/cm^3) in the vehicle; and A=surface area (cm^2). The cumulative amount of C2E5 and its metabolites permeated through the SD rat skin versus time is presented in FIG. 1, The overall concentrations of C2E5 and its metabolites in receiver compartment at different time points were calculated based on Equation 5.
The concentrations of C2E5 and its metabolites in the collected samples from the receiver compartment at different time points were analyzed by HPLC-FSA.

[3] = In vitro C2E5 metabolism studies using SD rat skin S9 fractions; assay type: in vitro ADME
[4] = system: rats contaminated with ^241Am; test: Radionuclide decorporation efficacy study in rats contaminated with 241Am (Example 10): excretion, tissue content, liver and skeleton burden; assay type: in vivo, SD rats
Description: All animal studies were conducted according to a protocol approved by the University of North Carolina at Chapel Hill Institutional Animal Care and Use Committee (IACUC). Ten-week-old adult female SD rats weighing from 200 to 300 g were used in these studies (Charles River Labs, Raleigh, N.C.). Food and water were given ad libitum. The animal room was kept at a controlled temperature (23° C.) and light cycle (light exposure from 8 AM to 8 PM). For the duration of the study, the rats were housed in metabolic cages individually with daily urine and feces collection until euthanasia on Day 7.
To evaluate the efficacy of transdermal delivery of the C2E5 nonaqueous gel, a radionuclide decorporation efficacy study was conducted in rats contaminated with ^241Am. Adult female SD rats were anesthetized with 2-3% isoflurane. Dorsal skin between the cervical vertebrae and anterior thoracic vertebrae was clipped with caution before all animals were contaminated with [^241Am]-Americium nitrate solution (250 nCi, 0.1 mL) via an i.m. injection in anterior thigh muscle. The C2E5 nonaqueous gel was applied at dose of 1000 mg/kg using a cotton swap to a 6 cm^2 (2 cm×3 cm) area of the clipped dorsal region immediately after contamination. A jacket with plastic dorsal insert (VWR International) was placed on the rat to protect the gel application region. The mass of C2E5 gel applied was recorded for each animal to permit the actual dose determination. The animals were housed in metabolic cages individually after C2E5 treatment and were euthanized 7 days after contamination. Positive and negative controls included animals administered Ca-DTPA intravenously and animals without any treatment. The animals were observed once daily and their body weights recorded at pre-dose and prior to necropsy, Urine and feces were collected daily until euthanasia, when the liver, kidneys, both femurs and the muscle tissue from around the injection site were also collected. Cage washes were collected at the end of each experiment. As ˜35% of the decay of ^241Am is associated with photon emissions of 59.7 keV, ^241Am present in samples was quantified using a gamma counter (2470 Wizard 2, Perkin Elmer). The samples were counted for one minute using a 40-80 keV energy detection window and were background-corrected. Additionally, ^241Am activity was quantified in 2×0.1 mL aliquots of the dosing solution. For all samples, ^241Am content was expressed as a percentage of the initial dose.
where % ID represents the percent of injected dose. Where data for both femurs were available, an estimate of the total skeletal burden was made using the method of Volf with modification in which the counts in the contra-lateral femur were multiplied by 19 and added to the counts in the ipsi-lateral femur. The modification for the literature method was due to higher ^241Am content in ipsi-lateral femur as a result of i.m. injection in anterior thigh muscle.
Statistically significant differences among groups were determined using one-way ANOVA with Tukey's post hoc comparison. All measurements are expressed as mean±standard deviation (S.D.). The level of significance was set at p<0.05.

[5] = pH 7.4; Sueda et al.; cited from earlier work
[6] = rats, seven days following a single dose, Ca-DTPA 14 mg/kg i.v., C2E5 1000 mg/kg transdermal
[7] = seven days after single dose, Ca-DTPA 14 mg/kg i.v., C2E5 1000 mg/kg transdermal gel
[8] = seven days, 1000 mg/kg transdermal

CCOC(=O)CN(CCN(CC(=O)OCC)CC(=O)OCC)CCN(CC(=O)OCC)CC(=O)OCC [Formulation C2E5, penta-substituted ethyl ester of DTPA]
density [1]: 1.119 g/mL | viscosity ([1]; 25° C.): 163 cps | cumulative amount of C2E5 and its metabolites permeated through the rat skin ([2]; at 8 h): 1.98 μmol/cm^2 | initially applied C2E5 dose permeated through the rat skin (C2E5 and its metabolites) ([2]; at 8 h, gel 6% EC10, 25% C2E5, 69% MIGLYOL 840): ~10% | cumulative amount of C2E5 and its metabolites permeated through the rat skin ([2]; at 23 h): 3.55 μmol/cm^2 | diffusional lag time through SD rat skin ([2]; gel 6% EC10, 25% C2E5, 69% MIGLYOL 840): 0.33 h | Jss per unit area through SD rat skin ([2]; steady-state between 2 h and 7 h, gel 6% EC10, 25% C2E5, 69% MIGLYOL 840): 0.276 μmol/cm^2/h | conversion of C2E5 to DTPA [3]: only minimally observed | Skeleton Burden (% of ID) ([4]; contra-lateral femur × 19 + ipsi-lateral femur, rats, seven days following a single dose, Ca-DTPA 14 mg/kg i.v. (n = 3), C2E5 1000 mg/kg transdermal): 9.6 ± 0.9 % of ID | Ipsi-lateral femur content of 241Am ([4]; rats, seven days following a single dose, Ca-DTPA 14 mg/kg i.v. (one animal excluded), C2E5 1000 mg/kg transdermal): 0.54 ± 0.10 % of ID of ^241Am | % of Reduction over control (liver burden) [4, 6]: 49.1% | % of Reduction over control (skeleton burden) [4, 6]: 41.1% | Contra-lateral femur content of 241Am [4, 6]: 0.48 ± 0.05 % of ID of ^241Am | Kidney content of 241Am [4, 6]: 0.63 ± 0.07 % of ID of ^241Am | Liver Burden (% of ID) [4, 6]: 8.4 ± 2.0 % of ID | Liver content of 241Am [4, 6]: 8.4 ± 2.0 % of ID of ^241Am | Muscle-contra content of 241Am [4, 6]: 0.0078 ± 0.0017 % of ID of ^241Am per gram of muscle-contra | Muscle-ipsi content of 241Am [4, 6]: 44.3 ± 2.0 % of ID of ^241Am | Pelt at injection site content of 241Am [4, 6]: 0.84 ± 0.66 % of ID of ^241Am | Total decorporation (% of ID of 241Am) [4, 6]: 26.2 ± 2.7 % of ID of ^241Am | reduction of liver burden of ^241Am versus control group ([4]; seven days after single dose, Ca-DTPA 14 mg/kg i.v., C2E5 1000 mg/kg transdermal): 49.1% | % of Enhanced decorporation over control [4, 7]: 279.9% | Cumulative excretion of ^241Am In feces [4, 7]: 7.8 ± 1.2 % of ID | Cumulative excretion of ^241Am In urine [4, 7]: 18.4 ± 1.8 % of ID | Cumulative excretion of ^241Am Total [4, 7]: 26.2 ± 2.7 % of ID | ^241Am burden in the ipsi-lateral femur versus no-treatment control [4, 8]: statistically significant reduction | skeleton burden of ^241Am versus control group [4, 8]: statistically significant reduction | solubility of C2E5 [5]: 2200 µg/mL
